Data published in paper PMC2248166, “Quantitative peptide binding motifs for 19 human and mouse MHC class I molecules derived using positional scanning combinatorial peptide libraries” (Immunome Research, 2008).
Where a SMILES comes first, the peptide text is derived from it.

Molecular target: HLA A*3001 (Homo sapiens, UniProt P04439, D140H/D185E/E176W/F33S/G80R/H175R/K168Q/R138E/R41S)
Experiment: biochemical
Assay type: binding

Sequence of HLA A*3001 (P04439 25-365 limits assumed, stated change not applied): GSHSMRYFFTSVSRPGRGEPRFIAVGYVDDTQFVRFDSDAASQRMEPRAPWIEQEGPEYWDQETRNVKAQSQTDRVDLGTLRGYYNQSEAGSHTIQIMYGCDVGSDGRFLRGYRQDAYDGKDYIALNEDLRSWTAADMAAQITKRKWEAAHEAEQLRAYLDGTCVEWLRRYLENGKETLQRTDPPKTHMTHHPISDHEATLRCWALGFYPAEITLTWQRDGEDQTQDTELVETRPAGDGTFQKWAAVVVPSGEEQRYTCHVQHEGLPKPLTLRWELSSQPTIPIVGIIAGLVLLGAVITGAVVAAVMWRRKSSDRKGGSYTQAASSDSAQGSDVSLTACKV

| Compound | IC50 [nM] |
| --- | --- |
| CSCC[C@H](NC(=O)[C@H](CO)NC(=O)[C@H](C)NC(=O)CNC(=O)[C@H](CCCCN)NC(=O)[C@H](C)NC(=O)[C@H](C)N)C(=O)N[C@H](C(=O)N[C@@H](CC(C)C)C(=O)O)[C@@H](C)O [3102.0287] (H-AAKGASMTL-OH) | 1 |
| CC[C@H](C)[C@H](N)C(=O)N[C@@H](CO)C(=O)N[C@@H](CCCNC(=N)N)C(=O)N[C@@H](Cc1ccccc1)C(=O)N[C@@H](C)C(=O)N[C@@H](CC(N)=O)C(=O)N[C@@H](CC(C)C)C(=O)N[C@H](C(=O)N[C@@H](CCCCN)C(=O)O)[C@@H](C)CC [3102.0098] (H-ISRFANLIK-OH) | 13 |
| C[C@H](NC(=O)[C@H](C)NC(=O)[C@@H]1CCCN1C(=O)[C@H](CCCCN)NC(=O)[C@H](CO)NC(=O)[C@H](CCCNC(=N)N)NC(=O)[C@H](CO)NC(=O)[C@H](Cc1ccc(O)cc1)NC(=O)[C@@H](N)CCCCN)C(=O)O [3102.1349] (H-KYSRSKPAA-OH) | 5.7 |
| C[C@@H](O)[C@H](N)C(=O)N[C@H](C(=O)N[C@@H](CCCCN)C(=O)N[C@@H](CC(N)=O)C(=O)NCC(=O)N[C@@H](CCC(N)=O)C(=O)N1CCC[C@H]1C(=O)N[C@@H](CCCNC(=N)N)C(=O)N[C@@H](CCCCN)C(=O)O)[C@@H](C)O [3102.0252] (H-TTKNGQPRK-OH) | 0.23 |
| CC(C)C[C@H](NC(=O)[C@H](CCC(N)=O)NC(=O)[C@H](Cc1c[nH]cn1)NC(=O)[C@H](CCCCN)NC(=O)[C@H](CO)NC(=O)[C@H](CO)NC(=O)[C@@H](NC(=O)[C@@H](N)CCCCN)C(C)C)C(=O)N[C@H](C(=O)O)C(C)C [3102.0182] (H-KVSSKHQLV-OH) | 14 |
| CC[C@H](C)[C@H](NC(=O)[C@H](Cc1ccccc1)NC(=O)[C@H](CCCCN)NC(=O)CNC(=O)[C@H](CCC(N)=O)NC(=O)[C@H](CCCNC(=N)N)NC(=O)[C@@H](NC(=O)[C@@H](N)CCCNC(=N)N)[C@@H](C)CC)C(=O)N[C@@H](CCCCN)C(=O)O [3102.0028] (H-RIRQGKFIK-OH) | 4.8 |
| CC(C)[C@H](NC(=O)[C@H](Cc1ccc(O)cc1)NC(=O)[C@H](CO)NC(=O)[C@H](Cc1ccc(O)cc1)NC(=O)[C@@H](NC(=O)[C@@H]1CCCN1C(=O)[C@H](CCCCN)NC(=O)[C@H](Cc1ccc(O)cc1)NC(=O)[C@@H](N)CCCCN)C(C)C)C(=O)O [3102.0143] (H-KYKPVYSYV-OH) | 0.74 |
| CC(C)[C@H](NC(=O)[C@H](CCC(N)=O)NC(=O)[C@@H](NC(=O)[C@H](CCCNC(=N)N)NC(=O)[C@H](CCC(=O)O)NC(=O)[C@@H](NC(=O)[C@H](CCCNC(=N)N)NC(=O)[C@H](CO)NC(=O)[C@@H](N)CCCCN)C(C)C)C(C)C)C(=O)O [3102.0075] (H-KSRVERVQV-OH) | 11 |
| CC[C@H](C)[C@H](NC(=O)[C@H](CC(C)C)NC(=O)[C@H](CO)NC(=O)[C@@H](NC(=O)[C@H](CCCNC(=N)N)NC(=O)[C@@H](NC(=O)[C@@H](N)CCCNC(=N)N)C(C)C)[C@@H](C)CC)C(=O)N[C@@H](Cc1ccc(O)cc1)C(=O)N[C@@H](CC(C)C)C(=O)O [3102.0249] (H-RVRISLIYL-OH) | 0.092 |
| CC(C)C[C@H](NC(=O)[C@H](CO)NC(=O)[C@H](CO)NC(=O)[C@H](CCC(=O)O)NC(=O)[C@H](CCCCN)NC(=O)[C@H](CCCCN)NC(=O)[C@H](Cc1ccccc1)NC(=O)[C@@H](N)CCCNC(=N)N)C(=O)N[C@@H](C)C(=O)O [3102.0023] (H-RFKKESSLA-OH) | 0.31 |
| CC[C@H](C)[C@H](NC(=O)[C@H](CCCCN)NC(=O)[C@@H](NC(=O)[C@@H](N)CCCNC(=N)N)[C@@H](C)O)C(=O)N1CCC[C@H]1C(=O)N[C@@H](CC(C)C)C(=O)N[C@@H](CO)C(=O)N[C@@H](CCCCN)C(=O)N[C@H](C(=O)O)C(C)C [3102.0039] (H-RTKIPLSKV-OH) | 4.1 |
| CC[C@H](C)[C@H](NC(=O)[C@H](CCCNC(=N)N)NC(=O)CNC(=O)[C@@H](N)CCCCN)C(=O)N[C@@H](CO)C(=O)N[C@@H](Cc1ccc(O)cc1)C(=O)N[C@@H](Cc1ccc(O)cc1)C(=O)N[C@@H](CCC(=O)O)C(=O)N[C@@H](CCSC)C(=O)O [3102.0058] (H-KGRISYYEM-OH) | 14 |
| CC[C@H](C)[C@H](NC(=O)[C@H](CO)NC(=O)[C@H](CO)NC(=O)[C@H](CO)NC(=O)[C@H](CCCCN)NC(=O)[C@H](CCCNC(=N)N)NC(=O)[C@H](CO)NC(=O)CN)C(=O)N[C@@H](CC(C)C)C(=O)O [3102.0276] (H-GSRKSSSIL-OH) | 1.6 |
| CC(C)C[C@H](NC(=O)[C@H](Cc1ccccc1)NC(=O)[C@H](CO)NC(=O)[C@H](CCCCN)NC(=O)[C@H](CC(C)C)NC(=O)[C@H](CCC(N)=O)NC(=O)[C@H](CCCCN)NC(=O)[C@H](CO)NC(=O)[C@@H](N)CCCCN)C(=O)O [3102.0146] (H-KSKQLKSFL-OH) | 13 |
| CC(C)C[C@H](NC(=O)[C@H](CC(=O)O)NC(=O)[C@H](CCCCN)NC(=O)[C@@H](NC(=O)[C@@H](N)CCCCN)C(C)C)C(=O)N[C@@H](Cc1ccccc1)C(=O)N[C@@H](CC(N)=O)C(=O)N[C@H](C(=O)N[C@@H](CCCCN)C(=O)O)[C@@H](C)O [3102.0238] (H-KVKDLFNTK-OH) | 38 |
| CC[C@H](C)[C@H](NC(=O)[C@H](CCCCN)NC(=O)[C@H](CO)NC(=O)[C@@H](NC(=O)[C@@H](NC(=O)[C@H](CCCCN)NC(=O)[C@H](CCCNC(=N)N)NC(=O)[C@@H](NC(=O)[C@@H](N)CCCCN)C(C)C)[C@@H](C)CC)[C@@H](C)CC)C(=O)O [3102.0153] (H-KVRKIISKI-OH) | 27 |
| CC[C@H](C)[C@H](NC(=O)[C@H](CC(N)=O)NC(=O)[C@@H](NC(=O)[C@@H](NC(=O)[C@H](Cc1ccccc1)NC(=O)[C@@H](NC(=O)[C@H](C)N)[C@@H](C)O)[C@@H](C)O)C(C)C)C(=O)N[C@@H](Cc1ccccc1)C(=O)N[C@@H](CCCCN)C(=O)O [3102.0081] (H-ATFTVNIFK-OH) | 3.1 |
| CC[C@H](C)[C@H](NC(=O)[C@@H](N)CCCCN)C(=O)N[C@@H](CCCNC(=N)N)C(=O)N1CCC[C@H]1C(=O)N[C@H](C(=O)N[C@@H](CCCNC(=N)N)C(=O)N[C@@H](CO)C(=O)N[C@H](C(=O)N[C@@H](Cc1ccc(O)cc1)C(=O)O)C(C)C)[C@@H](C)O [3102.0206] (H-KIRPTRSVY-OH) | 7.2 |
| CSCC[C@H](NC(=O)[C@@H](N)CCCCN)C(=O)N[C@@H](CCCNC(=N)N)C(=O)N[C@@H](CC(=O)O)C(=O)N[C@H](C(=O)N[C@@H](CC(C)C)C(=O)N1CCC[C@H]1C(=O)N[C@@H](C)C(=O)N[C@@H](CCCCN)C(=O)O)[C@@H](C)O [3102.0121] (H-KMRDTLPAK-OH) | 1.6 |
| CC(C)C[C@H](NC(=O)[C@H](CC(N)=O)NC(=O)[C@H](CC(C)C)NC(=O)[C@H](CCCNC(=N)N)NC(=O)[C@H](CCCNC(=N)N)NC(=O)[C@H](CO)NC(=O)[C@@H](N)CCCCN)C(=O)N[C@@H](Cc1ccccc1)C(=O)N[C@@H](CO)C(=O)O [3102.0009] (H-KSRRLNLFS-OH) | 3.3 |
| CC(C)C[C@H](NC(=O)[C@H](CCC(=O)O)NC(=O)[C@H](CCCNC(=N)N)NC(=O)[C@H](CCCCN)NC(=O)[C@H](Cc1ccc(O)cc1)NC(=O)[C@H](Cc1ccccc1)NC(=O)[C@H](CCCCN)NC(=O)[C@@H](NC(=O)[C@@H](N)CCCCN)C(C)C)C(=O)O [3102.0235] (H-KVKFYKREL-OH) | 42 |
| CSCC[C@H](N)C(=O)N[C@H](C(=O)N[C@@H](CCCNC(=N)N)C(=O)N[C@@H](CC(C)C)C(=O)N1CCC[C@H]1C(=O)N[C@@H](Cc1ccc(O)cc1)C(=O)N[C@@H](CCCCN)C(=O)N[C@@H](CC(=O)O)C(=O)N[C@@H](C)C(=O)O)C(C)C [3102.0149] (H-MVRLPYKDA-OH) | 0.76 |
